Data: PubChem BioAssay (NCI)
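Values below derive from 48-hour exposures of cells grown in 96-well plates, with endpoints linearly interpolated between the two concentrations bracketing the appropriate inhibition level. TGI: concentration producing complete growth inhibition.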

Legend:
Test in all cases: growth of human tumour cells (NCI), 48 h
OVCAR-3 ovarian = system: OVCAR-3 ovarian
HS 578T breast = system: HS 578T breast
SR leukemia = system: SR leukemia
PC-3 prostate = system: PC-3 prostate
MDA-MB-435 = system: MDA-MB-435
HT29 colon = system: HT29 colon
T-47D breast = system: T-47D breast
SF-268 CNS = system: SF-268 CNS
SK-MEL-5 melanoma = system: SK-MEL-5 melanoma
LOX IMVI melanoma = system: LOX IMVI melanoma
HCT-116 colon = system: HCT-116 colon
OVCAR-8 ovarian = system: OVCAR-8 ovarian
A498 renal = system: A498 renal
SF-295 CNS = system: SF-295 CNS
NCI/ADR-RES ovarian = system: NCI/ADR-RES ovarian
COLO 205 colon = system: COLO 205 colon
SK-OV-3 ovarian = system: SK-OV-3 ovarian
M14 melanoma = system: M14 melanoma
OVCAR-4 ovarian = system: OVCAR-4 ovarian
UACC-257 melanoma = system: UACC-257 melanoma
EKVX NSCLC = system: EKVX NSCLC
SK-MEL-2 melanoma = system: SK-MEL-2 melanoma
MDA-N = system: MDA-N
MALME-3M melanoma = system: MALME-3M melanoma
SF-539 CNS = system: SF-539 CNS
UO-31 renal = system: UO-31 renal
RXF 393 renal = system: RXF 393 renal
UACC-62 melanoma = system: UACC-62 melanoma
CAKI-1 renal = system: CAKI-1 renal
HCT-15 colon = system: HCT-15 colon
SN12C renal = system: SN12C renal
DU-145 prostate = system: DU-145 prostate
HL-60(TB) leukemia = system: HL-60(TB) leukemia
786-0 renal = system: 786-0 renal
MDA-MB-231 breast = system: MDA-MB-231 breast
NCI-H522 lung = system: NCI-H522 lung
NCI-H460 lung = system: NCI-H460 lung
KM12 colon = system: KM12 colon
A549 NSCLC = system: A549 NSCLC
OVCAR-5 ovarian = system: OVCAR-5 ovarian
HCC-2998 colon = system: HCC-2998 colon
SW-620 colon = system: SW-620 colon
MOLT-4 leukemia = system: MOLT-4 leukemia
IGROV1 ovarian = system: IGROV1 ovarian
TK-10 renal = system: TK-10 renal
SK-MEL-28 melanoma = system: SK-MEL-28 melanoma
HOP-92 NSCLC = system: HOP-92 NSCLC
HOP-62 NSCLC = system: HOP-62 NSCLC
ACHN renal = system: ACHN renal
SNB-19 CNS = system: SNB-19 CNS
K-562 leukemia = system: K-562 leukemia
NCI-H226 lung = system: NCI-H226 lung
U251 CNS = system: U251 CNS
NCI-H23 lung = system: NCI-H23 lung
CCRF-CEM leukemia = system: CCRF-CEM leukemia
RPMI-8226 leukemia = system: RPMI-8226 leukemia
MCF7 breast = system: MCF7 breast
BT-549 breast = system: BT-549 breast
SNB-75 CNS = system: SNB-75 CNS

CCOP(C)(=O)C(Nc1ccc(F)cc1)c1ccc(F)cc1 (centres undefined)
TGI (OVCAR-3 ovarian): > 100 µM | TGI (HS 578T breast): > 100 µM | TGI (SR leukemia): > 100 µM | TGI (PC-3 prostate): > 100 µM | TGI (MDA-MB-435): > 100 µM | TGI (HT29 colon): > 100 µM | TGI (T-47D breast): > 100 µM | TGI (SF-268 CNS): > 100 µM | TGI (SK-MEL-5 melanoma): > 100 µM | TGI (LOX IMVI melanoma): > 100 µM | TGI (HCT-116 colon): > 100 µM | TGI (OVCAR-8 ovarian): > 100 µM | TGI (A498 renal): > 100 µM | TGI (SF-295 CNS): > 100 µM | TGI (NCI/ADR-RES ovarian): > 100 µM | TGI (COLO 205 colon): > 100 µM | TGI (SK-OV-3 ovarian): > 100 µM | TGI (M14 melanoma): > 100 µM | TGI (OVCAR-4 ovarian): > 100 µM | TGI (UACC-257 melanoma): > 100 µM | TGI (EKVX NSCLC): > 100 µM | TGI (SK-MEL-2 melanoma): > 100 µM | TGI (MDA-N): > 100 µM | TGI (MALME-3M melanoma): > 100 µM | TGI (SF-539 CNS): > 100 µM | TGI (UO-31 renal): > 100 µM | TGI (RXF 393 renal): > 100 µM | TGI (UACC-62 melanoma): > 100 µM | TGI (CAKI-1 renal): > 100 µM | TGI (HCT-15 colon): > 100 µM | TGI (SN12C renal): > 100 µM | TGI (DU-145 prostate): > 100 µM | TGI (HL-60(TB) leukemia): > 100 µM | TGI (786-0 renal): > 100 µM | TGI (MDA-MB-231 breast): > 100 µM | TGI (NCI-H522 lung): > 100 µM | TGI (NCI-H460 lung): > 100 µM | TGI (KM12 colon): > 100 µM | TGI (A549 NSCLC): > 100 µM | TGI (OVCAR-5 ovarian): > 100 µM | TGI (HCC-2998 colon): > 100 µM | TGI (SW-620 colon): > 100 µM | TGI (MOLT-4 leukemia): > 100 µM | TGI (IGROV1 ovarian): > 100 µM | TGI (TK-10 renal): > 100 µM | TGI (SK-MEL-28 melanoma): > 100 µM | TGI (HOP-92 NSCLC): > 100 µM | TGI (HOP-62 NSCLC): > 100 µM | TGI (ACHN renal): > 100 µM | TGI (SNB-19 CNS): > 100 µM | TGI (K-562 leukemia): > 100 µM | TGI (NCI-H226 lung): > 100 µM | TGI (U251 CNS): > 100 µM | TGI (NCI-H23 lung): > 100 µM | TGI (CCRF-CEM leukemia): > 100 µM | TGI (RPMI-8226 leukemia): > 100 µM

COc1ccc(-c2nnc(CCCCCCCCc3nnc(-c4ccc(OC)cc4)o3)o2)cc1
TGI (OVCAR-3 ovarian): > 100 µM | TGI (PC-3 prostate): > 100 µM | TGI (MDA-MB-435): > 100 µM | TGI (HT29 colon): > 100 µM | TGI (SF-268 CNS): > 100 µM | TGI (SK-MEL-5 melanoma): > 100 µM | TGI (LOX IMVI melanoma): > 100 µM | TGI (HCT-116 colon): > 100 µM | TGI (OVCAR-8 ovarian): > 100 µM | TGI (A498 renal): > 100 µM | TGI (SF-295 CNS): > 100 µM | TGI (NCI/ADR-RES ovarian): > 100 µM | TGI (COLO 205 colon): > 100 µM | TGI (SK-OV-3 ovarian): > 100 µM | TGI (M14 melanoma): > 100 µM | TGI (MCF7 breast): > 100 µM | TGI (OVCAR-4 ovarian): > 100 µM | TGI (UACC-257 melanoma): > 100 µM | TGI (BT-549 breast): 59 µM | TGI (SNB-75 CNS): 93.6 µM | TGI (EKVX NSCLC): > 100 µM | TGI (SK-MEL-2 melanoma): > 100 µM | TGI (MDA-N): > 100 µM | TGI (MALME-3M melanoma): > 100 µM | TGI (SF-539 CNS): > 100 µM | TGI (UO-31 renal): > 100 µM | TGI (CAKI-1 renal): > 100 µM | TGI (HCT-15 colon): > 100 µM | TGI (SN12C renal): > 100 µM | TGI (DU-145 prostate): > 100 µM | TGI (HL-60(TB) leukemia): > 100 µM | TGI (786-0 renal): > 100 µM | TGI (MDA-MB-231 breast): > 100 µM | TGI (NCI-H522 lung): > 100 µM | TGI (NCI-H460 lung): > 100 µM | TGI (KM12 colon): > 100 µM | TGI (A549 NSCLC): > 100 µM | TGI (OVCAR-5 ovarian): > 100 µM | TGI (HCC-2998 colon): > 100 µM | TGI (SW-620 colon): > 100 µM | TGI (MOLT-4 leukemia): > 100 µM | TGI (IGROV1 ovarian): > 100 µM | TGI (TK-10 renal): > 100 µM | TGI (SK-MEL-28 melanoma): > 100 µM | TGI (HOP-92 NSCLC): > 100 µM | TGI (HOP-62 NSCLC): 74.2 µM | TGI (ACHN renal): > 100 µM | TGI (SNB-19 CNS): > 100 µM | TGI (K-562 leukemia): > 100 µM | TGI (NCI-H226 lung): > 100 µM | TGI (U251 CNS): > 100 µM | TGI (NCI-H23 lung): > 100 µM | TGI (CCRF-CEM leukemia): > 100 µM
